Data: patent US10695314B2, “Antimicrobial composition containing 7,10-epoxyoctadeca-7,9-dienoic acid as active ingredient” (priority 2016, dated 2020)
≈ marks a conversion by molar mass, not a printed value. Read-outs that look alike come from different tables or passages of the source.

Assays:
[1] = test system: Staphylococcus aureus ATCC 29213; assay: Agar disk diffusion analysis, zone of inhibition (ZOI); type: cell-based; conditions: strain 29213; for ZOI without 7.10-EODA: antibiotic ½×MIC alone; for ZOI with 7.10-EODA: antibiotic ½×MIC with 7,10-EODA ¼×MIC
Procedure: (§1) For synergy effect screening, a 0.1 mL aliquot of MRSA or MSSA strain (5×10^5 CFU/mL) cultured in a log-phase on TSA plates was inoculated. […] A disk including DMSO alone or 7,10-EODA alone (¼×MIC) was used as a control group. The plates were cultured under conditions of […] and 24 hours, and a synergistic effect was observed when the disk periphery including both antibiotic and 7,10-EODA was at least 5 mm in zone of inhibition (ZOI).
(§2) Specifically, the minimal inhibitory concentration (MIC) was measured according to the method of Experimental Example 4 above, and the degree of inhibition (Agar diffusion analysis) (zone of inhibition; ZOI) was measured according to the method of Experimental Example 5 above.

[2] = test system: MDRSA 01ST001; assay: as above; type: cell-based, Staphylococcus aureus; conditions: for ZOI without 7.10-EODA / ZOI with 7.10-EODA: strain 001; for ZOI without 7.10-EODA: antibiotic ½×MIC alone; for ZOI with 7.10-EODA: antibiotic ½×MIC with 7,10-EODA ¼×MIC; for antimicrobial activity, disk diffusion: 100 μg each, FIG. 4; for antimicrobial activity effect in combination with 7,10-EODA: antibiotic treated in combination with 7,10-EODA, Table 1 summary
Procedure: as §1
Specifically, in order to compare the antimicrobial activity of the 7,10-EODA or the antibiotic of the present invention against the MDRSA 01ST001 strain, the MDRSA 01ST001 strain was treated with the 7,10-EODA (E 100 μg) of the present invention, streptomycin (S, 100 μg), ampicillin (A, 100 μg), oxacillin (O, 100 μg), vancomycin (V, 100 μg), or penicillin (P, 100 μg), according to the method described in Experimental Example 5.
as §2

[3] = test system: MDRSA 01ST001; assay: Minimal inhibitory concentration (MIC), broth microdilution per CLSI
[4] = test system: Staphylococcus aureus ATCC 29213; assay: as above; type: cell-based; conditions: strain 29213 (ATCC 29213), antibiotic alone
Procedure: The minimum inhibitory concentration (MIC) of antibiotics and the activity of 7,10-EODA of the present invention against Staphylococcus aureus strains were measured according to the CLSI guideline (CLSI document M100-517, 2007). Specifically, each antibiotic or 7,10-EODA was diluted 2-fold (200-0.97 μg/mL) by adding MHB (Mueller-Hinton Broth) to a 96-well microtiter plate. In the mid-exponential phase (0.5 OD600), the culture was diluted 10-fold with MHB and 0.1 mL aliquots of the diluent were added to wells containing the serially diluted test reagent and cultured at 37° C. for 12 hours. About the end of the culture period, the cell density was measured at an optical density of 600 nm (OD600) using a […].
as §2

[5] = test system: MRSA 01ST001 (MDRSA 01ST001); assay: Antimicrobial activity on solid medium (clear zone around filter paper); type: cell-based, Staphylococcus aureus; conditions: for clear zone on agar plate: 100 μg per filter paper, 37° C., 2 to 3 days, FIG. 1
Procedure: (§3) First, 1.5% of potato agar was added to the YDP medium, sterilized, and then an agar plate hardened by pouring about 20 ml in a plastic Petri dish was used. MRSA 01ST001 was diluted to about 107/ml, and then about 500 μl was dispersed evenly on the agar plate.
(§4) The size of the clear zone around the filter paper shown after the culture at 37° C. for 2 to 3 days after the inoculation was measured to confirm the degree of antimicrobial activity. At this time, vancomycin 100 μg, oxacillin 100 μg, ampicillin 100 μg, streptomycin 100 μg, and penicillin 100 μg were used as control groups.
(§5) The antimicrobial activity can be confirmed with the degree showing the clear zone on the agar plate. It is judged that the larger the clear zone, the higher the antimicrobial activity. The results are illustrated in FIG. 1 and FIG. 2.
(§6) The results are illustrated in FIG. 3. The experiment was carried out in the same manner as in Example 1-2.

[6] = test system: Staphylococcus aureus ATCC 29213; assay: as above; type: cell-based; conditions: FIG. 3
Procedure: as §3, §4, §5, §6

[7] = Staphylococcus aureus, ATCC29213, read-out: MIC
[8] = strain 001 (MDRSA 01ST001), antibiotic alone

Row | Compound | ZOI without 7.10-EODA [1] | ZOI with 7.10-EODA [1] | ZOI without 7.10-EODA [2] | ZOI with 7.10-EODA [2] | MIC ([3]; Staphylococcus aureus) | MIC [4, 7] | MIC [3, 8] | MIC [4] | antimicrobial activity, disk diffusion [2] | antimicrobial activity effect in combination with 7,10-EODA [2] | degree of decrease of the MIC90 value of penicillin versus no 7,10-EODA ([3]; 7,10-EODA at 1/16 of its original MIC90) | degree of decrease of the MIC90 value of penicillin versus no 7,10-EODA ([3]; 7,10-EODA at ⅛ of its original MIC90) | MIC90 value of penicillin ([3]; 7,10-EODA not used in combination, OD600) | MIC90 value of penicillin ([3]; in combination with 7.5 μg/mL 7,10-EODA (1/16 of its MIC90)) | MIC90 value of penicillin ([3]; in combination with 15.0 μg/mL 7,10-EODA (⅛ of its MIC90)) | clear zone on agar plate [5] | antimicrobial activity on solid medium [6] | antimicrobial activity on solid medium ([5]; MDRSA 01ST001, FIG. 3)
1 | O=C(N[C@H](CO)[C@H](O)c1ccc([N+](=O)[O-])cc1)C(Cl)Cl [CPL, chloramphenicol] | 7.4 ± 0.2 mm | 7.21 mm | 13.2 ± 0.4 mm | 13.9 mm | 10 µg/mL (≈ 30.9 µM) | 10 µg/mL (≈ 30.9 µM) | – | – | – | – | – | – | – | – | – | – | – | –
2 | Oc1cc(Cl)ccc1Oc1ccc(Cl)cc1Cl [IRG, irgasan] | 11.1 ± 0.5 mm | 10.0 mm | 12.4 ± 0.3 mm | 13.8 mm | – | – | 0.1 µg/mL (≈ 0.345 µM) | 0.1 µg/mL (≈ 0.345 µM) | – | – | – | – | – | – | – | – | – | –
3 | CO[C@H]1/C=C/O[C@@]2(C)Oc3c(C)c(O)c4c(O)c(c(/C=N/N5CCN(C)CC5)c(O)c4c3C2=O)NC(=O)/C(C)=C\C=C\[C@H](C)[C@H](O)[C@@H](C)[C@@H](O)[C@@H](C)[C@H](OC(C)=O)[C@@H]1C [RIF, rifampicin] | 21.0 ± 0.8 mm | – | 18.3 ± 0.2 mm | 20.2 mm | 5 µg/mL (≈ 6.08 µM) | 5 µg/mL (≈ 6.08 µM) | – | – | – | – | – | – | – | – | – | – | – | –
4 | penicillin | 12.9 ± 0.4 mm | 13.2 mm | 7.1 ± 0.1 mm | 13.6 mm | – | – | 1000.0 µg/mL | 0.5 µg/mL | resistant | strong antimicrobial activity effect | 1/32 | ¼ | 350 µg/mL | 87.5 µg/mL | 10.9 µg/mL | no clear zone appeared | – | –
5 | O=C(O)c1cn(C2CC2)c2cc(N3CCNCC3)c(F)cc2c1=O [CIP, ciprofloxacin] | 9.6 ± 0.2 mm | 13.2 mm | 6.0 ± 0.0 mm | 13.2 mm | – | – | – | – | – | strong antimicrobial activity effect | – | – | – | – | – | – | – | –
6 | CN(C)CCCN1c2ccccc2Sc2ccc(Cl)cc21 [CPZ, chlorpromazine] | 6.0 ± 0.0 mm | 8.05 mm | 7.2 ± 0.1 mm | 12.0 mm | 62.5 µg/mL (≈ 196 µM) | 125 µg/mL (≈ 392 µM) | – | – | – | – | – | – | – | – | – | – | – | –
7 | [H]/N=C(/N)N[C@H]1[C@H](O)[C@@H](O)[C@H](O[C@@H]2O[C@@H](C)[C@](O)(C=O)[C@H]2O[C@@H]2O[C@@H](CO)[C@H](O)[C@@H](O)[C@@H]2NC)[C@@H](N/C(N)=N\[H])[C@@H]1O [STP, streptomycin] | 6.0 ± 0.0 mm | 11.4 mm | 6.0 ± 0.0 mm | 12.9 mm | 62.5 µg/mL (≈ 107 µM) | 3 µg/mL (≈ 5.16 µM) | – | – | resistant | strong antimicrobial activity effect | – | – | – | – | – | no clear zone appeared | – | –
8 | COc1cc(Cc2cnc(N)nc2N)cc(OC)c1OC [TMP, trimethoprim] | 8.9 ± 0.1 mm | 12.3 mm | 6.0 ± 0.0 mm | 6.00 mm | 7.8 µg/mL (≈ 26.9 µM) | 7.8 µg/mL (≈ 26.9 µM) | – | – | – | – | – | – | – | – | – | – | – | –
9 | CC1=C(C(=O)O)N2C(=O)[C@@H](NC(=O)[C@H](N)c3ccccc3)[C@H]2SC1 [CEP, cephalexin] | 15.3 ± 0.1 mm | 15.3 mm | 10.1 ± 1.3 mm | 13.1 mm | 1000 µg/mL (≈ 2880 µM) | 1.97 µg/mL (≈ 5.67 µM) | – | – | – | – | – | – | – | – | – | – | – | –
10 | CN[C@H](CC(C)C)C(=O)N[C@H]1C(=O)N[C@@H](CC(N)=O)C(=O)N[C@H]2C(=O)N[C@H]3C(=O)N[C@H](C(=O)N[C@H](C(=O)O)c4cc(O)cc(O)c4-c4cc3ccc4O)[C@H](O)c3ccc(c(Cl)c3)Oc3cc2cc(c3O[C@@H]2O[C@H](CO)[C@@H](O)[C@H](O)[C@H]2O[C@H]2C[C@](C)(N)[C@H](O)[C@H](C)O2)Oc2ccc(cc2Cl)[C@H]1O [vancomycin] | – | – | – | – | – | – | – | – | – | – | – | – | – | – | – | clear zone appeared | same antimicrobial activity | same antimicrobial activity
